Common to all, as to format: cell-based
Assay [1] deals with Primary human epidermal keratinocytes, HeKa. In words: HeKa cytokine release (IL-8). Particulars: Homo sapiens; HeKa cells, 6 h at 37° C., IL-8 by MSD assay; normalized to 1.5×10^−7 M PEP0005; read-out: HeKa cytokine release (IL-8) Rel EC50 range. In short, it runs like this: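 Seeded cells exposed to compound dilutions for 6 h at 37° C; IL-8 in supernatant quantified by MSD sandwich electrochemiluminescence immunoassay. Effects normalized to positive control (1.5×10^−7 M PEP0005), four-parameter sigmoidal fit; Rel EC50 is concentration midway between fitted top and bottom.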

A further assay concerns HeLa cells. In words: Necrosis assay. Particulars: Homo sapiens, 0.5 h; HeLa cells, 30 min at 37° C., PrestoBlue; AbsEC50, normalized to 400 μM ingenol mebutate; read-out: HeLa necrosis EC50 range. In a few lines: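 HeLa cells treated with compound at 10 μM to 400 μM (final) for 30 min at 37° C., viability then measured by PrestoBlue fluorescence (ex 535/em 630 nm). Normalized to 1% DMSO and 400 μM ingenol mebutate controls; AbsEC50 from four-parameter sigmoidal fit.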

In assay [2] the test system is PMN's (polymorphonuclear leukocytes). In words: Neutrophil oxidative burst. Particulars: Leukocyte, 40 min; PMN from buffy coats, 40 min at RT, hydroethidine fluorescence; normalized to 5×10^−7 M PEP0005; read-out: Neutrophil oxidative burst Rel EC50 range. In a few lines:
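Human buffy-coat neutrophils (2.5×10^5/well) in HBSS with 0.1% BSA, 5 mM glucose treated with compound premixed with 10 μM hydroethidine for 40 min at RT; fluorescence read at 485/579 nm. Normalized to 5×10^−7 M PEP0005; Rel EC50 is midway between fitted top and bottom, Abs EC50 gives 50% of PEP0005 maximum.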

For orientation: EC50 means the concentration giving half of the maximal effect.

For `C/C=C(/C)C(=O)O[C@H]1C(C)=C[C@]23C(=O)[C@@H](C=C(CO)[C@@H](O)[C@]12O)[C@H]1[C@@H](C[C@H]3C)C1(C)C` [Ingenol mebutate, Ingenol-3-angelate, reference compound], the results for the EC50 (in assay [1]; in the assay on HeLa cells; in assay [2]) were less than 0.02 µM, 150 to 350 µM and less than 0.02 µM, respectively.
